According to patent publication US20180214400A1, “THE USE OF KAURANES COMPOUNDS IN THE MANUFACTURE OF MEDICAMENT FOR TREATMENT OF CADIAC HYPERTROPY AND PULMONARY HYPERTENSION” (KEY-PHARMA BIOMEDICAL INC., priority 2015, published 2018):

What was measured:
[1] = Solubility of compound A sodium; assay type: physicochemical
Description: Only organic solvent which are already approved by FDA for i.v. administration were used for increasing solubility of compound A. After extensive screening of several solvents, the invention disclosed an optimized solvent system for compound A, which composed of saline at pH 10.0, 25% of ethanol and 20% of propylene glycol (2%, w/w) (compound A sodium).

[2] = test system: cGMP; experiment: cGMP ELISA in neonatal rat fibroblasts; assay type: cell-based; settings: 3 h
Description: Neonatal rat cardiac fibroblasts were isolated from 1-2-day-old Sprague-Dawley rats as described previously. Briefly, hearts from newborn 1-2-day-old Sprague-Dawley rats were minced on ice, and cells were isolated by trypsin incubation at 37° C. Non-cardiomyocytes were separated from the cardiomyocytes by differential pre-plating, and then cardiomyocytes were removed with fibroblasts seeded in culture dishes. The cells were passaged after 3 days, using a 0.05% trypsin solution. Cells were cultured in DEME/F12 medium with 5% fetal calf serum, and maintained at 37° C., 5% CO2 condition. cGMP levels in the neonatal rat fibroblasts after treated with vehicle or compound A or sildenafil were measured with an ELISA kit following the manufacture's instruction. Quiescent cells were cultured with different doses of compound A ([…]) or sildenafil ([…]) for 3 h. After treatment, the cells were lysed with 0.1N HCl, and performed cGMP ELISA assay.

[3] = test system: Diabetic cardiomyopathy (DCM) rats; experiment: Streptozotocin-induced diabetic cardiomyopathy; assay type: in vivo, Wistar rats; settings: STZ diabetes, 12-16 weeks; for cardiac function comparing to group B: pressure-volume system
Description: Diabetic cardiomyopathy (DCM) Diabetic induced injury to the myocardium. DCM, induced by streptozotocin (STZ), along with the associated changes occurring in inflammation, oxidative stress and fibrosis markers. Wistar rats were randomly divided into four groups: group A (Normal control), group B (Diabetes), group […] group D (DM/TMZ, trimetazidine treatment). After 12-16 weeks, left ventricular function was measured by the pressure-volume system. Cardiac tissues were prepared for histological study by hematoxlyin and eosin, Sirius red staining as well as for assays of oxidative stress. Oxidative stress, inflammation, and fibrosis markers were evaluated by molecular biological techniques. All data were measured morphometrically and statistically analyzed.

[4] = test system: acute ischemia-reperfusion heart injuries; settings: cited from earlier work
[5] = large amount, certain condition in vitro; cited from earlier work

| solubility of sodium salt relative to compound A [1] | Structure (SMILES) | Stimulated production of cGMP ([2]; 1 um) [%] | Stimulated production of cGMP ([2]; 10 um) [%] | blood glucose level and insulin levels comparing to Diabetes group [3] | cardiac function comparing to group B [3] | cardioprotective effect and arrhythmia [4] | mutagenicity [5] | cardiac hypertrophy [3] |
| --- | --- | --- | --- | --- | --- | --- | --- | --- |
| better solubility | CC12CCC3C(CCC4C(C)(C(=O)[O-])CCCC34C)(CC1=O)C2.[Na+] (stereo not shown) [Compound A-1Na] | 157 ± 43 | 207 ± 54 | no significant changes | significantly improved | – | – | – |
| – | C=C1C[C@@]23CC[C@H]4[C@@](C)(CCC[C@@]4(C)C(=O)O)[C@@H]2CC[C@]1(O)C3 (single isomer, unassigned; ent-13) [Compound B, ent-13-hydroxykaur-16-en-18-oic acid] | – | – | – | – | cardioprotective effect | may be mutagenic | – |
| – | COc1ccc(CN2CCNCC2)c(OC)c1OC [TMZ, trimetazidine, reference compound] | – | – | no significant changes | significantly improved | – | – | significant inhibited |
